The assay deals with T1, Neuraminidase (Derived from Vibrio cholerae) (Vibrio cholerae serotype O1, UniProt P0C6E9).
T1 construct: host or cells: Vibrio cholerae (printed as 'Vibro-Choralie')
Briefly: Inhibition activity against neuraminidase (pre-incubation, p-nitrophenyl-α-N-acetyl neuraminic acid hydrolysis, absorbance 405 nm). The class given is biochemical. The conditions noted are these: irreversible inhibitor; pre-incubation 0, 10 or 30 min with 0-0.5 mM, pH 5.0; calculated from inhibition curve (FIG. 3); read-out: inhibition constant (Ki). As to the method: Neuraminidase (50 μg) produced by Vibro-Choralie was pre-incubated in 50 mM phosphoric acid-tartaric acid buffer (pH 5.0, 10 μ1) together with the compound 6 (0, 0.05, 0.1, 0.2, and 0.5 mM), after 0, 10 or 30 minutes, 2 μl of the reaction solution was fractionated, respectively. The fractionated and pre-incubated solution was immediately incubated for 5 minutes in 50 mM phosphoric acid-tartaric acid buffer (pH 5.0, 50 μl) using 5 mM p-nitrophenyl-α-N-acetyl neuraminic acid. Then, glycine buffer (pH 11.0, […]) was added to each fractionated solution to stop the reaction. The amount of p-nitrophenol produced by hydrolysis reaction of neuraminidase was calculated by absorbance determination at 405 nm.

T1 sequence (P0C6E9 25-781): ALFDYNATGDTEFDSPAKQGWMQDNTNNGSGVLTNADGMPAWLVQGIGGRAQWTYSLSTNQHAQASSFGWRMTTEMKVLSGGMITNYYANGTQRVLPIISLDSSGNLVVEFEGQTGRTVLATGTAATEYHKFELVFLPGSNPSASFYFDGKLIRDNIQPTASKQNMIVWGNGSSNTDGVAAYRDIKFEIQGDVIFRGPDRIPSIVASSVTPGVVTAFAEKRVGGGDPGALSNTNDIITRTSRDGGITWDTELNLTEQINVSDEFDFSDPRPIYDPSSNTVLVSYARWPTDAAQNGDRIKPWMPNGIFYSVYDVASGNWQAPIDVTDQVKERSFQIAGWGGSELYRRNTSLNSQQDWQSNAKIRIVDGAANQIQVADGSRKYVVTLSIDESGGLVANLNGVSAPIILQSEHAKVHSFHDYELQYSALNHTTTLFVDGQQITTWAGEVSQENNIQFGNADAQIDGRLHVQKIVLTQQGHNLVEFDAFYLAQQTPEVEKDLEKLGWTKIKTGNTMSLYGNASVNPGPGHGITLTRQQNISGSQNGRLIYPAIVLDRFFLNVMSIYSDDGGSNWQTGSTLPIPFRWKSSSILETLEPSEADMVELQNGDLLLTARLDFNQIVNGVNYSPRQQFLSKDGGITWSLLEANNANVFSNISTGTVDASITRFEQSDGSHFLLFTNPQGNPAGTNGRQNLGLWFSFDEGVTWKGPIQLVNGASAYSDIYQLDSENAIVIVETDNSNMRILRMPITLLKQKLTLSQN

In the case of `CC(=O)NC1C(O)CC(Oc2ccc(NS(=O)(=O)c3cccc4c(N(C)C)cccc34)cc2C(F)F)(C(=O)O)OC1C(O)C(O)CO` (stereo not shown) [compound 6], the Ki was 1.9 mM.
